How the values were obtained:
[1] = target: T1, JAK1 (Homo sapiens, UniProt P23458); assay: Z'-LYTE kinase assay JAK1; assay type: biochemical
T1 construct: 5 μl of catalytic domain recombinant Kinase enzyme+Tyr peptide substrate (Invitrogen, CA); purchased Invitrogen
In short: (§1)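 Read-out is FRET fluorescence between coumarin and fluorescein on a Tyr6 peptide, lost when the development protease cleaves unphosphorylated substrate. Kinase reaction used recombinant catalytic domain with ATP, 1 h at room temperature, 1% DMSO.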

[2] = target: T2, JAK2 (Homo sapiens, UniProt O60674); assay: Z'-LYTE kinase assay JAK2; assay type: biochemical
T2 construct: 5 μl of catalytic domain recombinant Kinase enzyme+Tyr peptide substrate (Invitrogen, CA); purchased Invitrogen
T2 sequence (O60674 849-1124 limits assumed): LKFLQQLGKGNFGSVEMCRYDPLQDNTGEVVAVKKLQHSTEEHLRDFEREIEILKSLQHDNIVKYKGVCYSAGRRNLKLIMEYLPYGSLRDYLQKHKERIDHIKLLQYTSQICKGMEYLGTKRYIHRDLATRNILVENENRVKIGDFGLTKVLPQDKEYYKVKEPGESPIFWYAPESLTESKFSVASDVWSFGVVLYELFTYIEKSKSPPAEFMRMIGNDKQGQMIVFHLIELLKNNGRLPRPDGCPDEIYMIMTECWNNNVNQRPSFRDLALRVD
In short: as §1

[3] = target: T3, JAK3 (Homo sapiens, UniProt P52333); assay: Z'-LYTE kinase assay JAK3; assay type: biochemical
T3 construct: 5 μl of catalytic domain recombinant Kinase enzyme+Tyr peptide substrate (Invitrogen, CA); purchased Invitrogen
T3 sequence (P52333 822-1111 limits assumed): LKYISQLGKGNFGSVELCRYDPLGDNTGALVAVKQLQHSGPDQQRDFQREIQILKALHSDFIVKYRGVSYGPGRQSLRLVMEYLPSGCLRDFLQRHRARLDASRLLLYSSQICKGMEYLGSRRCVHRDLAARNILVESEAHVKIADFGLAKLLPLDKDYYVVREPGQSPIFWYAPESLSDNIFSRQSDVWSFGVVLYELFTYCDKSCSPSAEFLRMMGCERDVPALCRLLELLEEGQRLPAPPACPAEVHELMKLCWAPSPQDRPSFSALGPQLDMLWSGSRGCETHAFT
In short: as §1

[4] = target: T4, TYK2 (Homo sapiens, UniProt P29597); assay: Z'-LYTE kinase assay TYK2; assay type: biochemical
T4 construct: 5 μl of catalytic domain recombinant Kinase enzyme+Tyr peptide substrate (Invitrogen, CA); purchased Invitrogen
T4 sequence (P29597 897-1176 limits assumed): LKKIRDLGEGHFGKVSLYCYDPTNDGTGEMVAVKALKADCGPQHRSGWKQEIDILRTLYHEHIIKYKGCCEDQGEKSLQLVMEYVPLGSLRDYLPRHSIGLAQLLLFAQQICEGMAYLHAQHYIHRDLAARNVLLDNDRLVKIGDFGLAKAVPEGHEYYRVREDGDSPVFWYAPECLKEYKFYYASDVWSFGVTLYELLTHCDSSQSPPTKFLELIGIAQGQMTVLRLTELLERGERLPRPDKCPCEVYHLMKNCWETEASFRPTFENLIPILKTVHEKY
Protocol: JAK and TYK2 tyrosine phosphorylation activity is measured using the Z′-LYTE™ Technology developed by Invitrogen Corporation (Carlsbad, Calif.). For JAK1, JAK2 and JAK3 the Z′-LYTE™ Kinase Assay Kit-Tyr6 Peptide (part number PV4122) was used. For TYK2 the Z′-LYTE™ Kinase Assay Kit-Tyr6 Peptide (part number PV3192) was used. The Z′-LYTE™ biochemical assay employs a fluorescence resonance energy transfer (FRET) coupled-enzyme format and is based on the differential sensitivity of phosphorylated and non-phosphorylated peptides to proteolitic cleavage. The assay uses a synthetic peptide substrate that is labelled with a donor fluorophore (coumarin) and an acceptor fluorophore (fluorescein) that make up a FRET pair. In the primary reaction (the Kinase Reaction), the kinase transfers the γ-phosphate of ATP to a single tyrosine residue on the substrate, while the presence of a kinase inhibitor in the primary reaction suppresses phosphorylation. In the secondary reaction (the Development Reaction), a site-specific protease (the Development Reagent) is added. The development buffer quenches the Kinase Reaction, while the protease recognizes and cleaves non-phosphorylated Z′-LYTE™ peptide substrate. Cleavage disrupts FRET between the donor and acceptor fluorophores on the non-phosphoryleted substrate, while uncleaved, phosphorylated substrate maintains FRET.
To test the ability of candidate molecules to inhibit JAK tyrosine phosphorylation activity, molecules are reconstituted in 100% DMSO and serially diluted 1:10 in polypropylene v-bottom microtiter plates. The candidate molecules are then diluted 1:25 into kinase buffer and 2.5 μl transferred into duplicate wells of a 384 well low volume black microtiter assay plate (Corning, USA). The final DMSO concentration in the assay is 1%. The kinase reaction contains 2.5 μl of a candidate molecule, 5 μl of catalytic domain recombinant Kinase enzyme+Tyr peptide substrate (Invitrogen, CA) and 2.5 μl ATP (Invitrogen, CA). The kinase reaction is allowed to procede for 1 hour at room temperature. The protease reaction is initiated by the addition of 5 μl Development Reagent (Invitrogen, CA). After 1 hour incubation at room temperature the fluorescence is measured using a FlexStation plate reader (Molecular Devices, Sunnyvale, Calif.). The reader settings used are as follows: Fluorescence mode, endpoint, top read, excitation 400 nm, emission 445 nm and 520 nm, Auto Cutoff 435 nm and 515 nm, PMT sensitivity high, 6 reads per well Inhibition of JAK kinase activity is calculated as the percent phosphorylation of substrate in the presence of inhibitor compared to the percent phosphorylation of substrate in the absence of inhibitor. IC50's were derived using Xlfit 4.3 (IDBS, UK), 4 parameter logistic model 205: Y=(A+4B-A)/(1+((C/x)AD)))).

[5] = tested on: JAK1/3 signaling to STAT6 in Ramos B cells; assay: IL4 stimulation of JAK1/3 signaling to STAT6 in Ramos B cells (pSTAT6 Y641, FACS); assay type: cell-based; settings: Homo sapiens; for inhibition at 0.2 µM: 0.2 uM compound, read-out: IL-4/STAT6 in Ramos Percent Inhibition at 0.2 uM; for inhibition at 1 µM: 1.0 uM compound, read-out: IL-4/STAT6 in Ramos Percent Inhibition at 1.0 uM
Protocol: IL4 stimulation of JAK1/3 signaling to STATE in Ramos B cells:
As an alternative strategy to measure effect of JAK3 inhibitors on JAK1/3 dependent cytokine signaling pathways, IL4 stimulation of the Ramos Burkett's B cell line is used. IL4 engages a receptor consisting of the IL4 receptor alpha chain and the common gamma chain. […] Ramos B cells are suspended in tissue culture media containing 10% fetal calf serum at 10×10̂6 cells/ml. 100 μl aliquots are pre-treated for 1 hour with various concentrations of compound, and then stimulated for 15 minutes with 15 ng IL4. The signaling reaction is terminated by fixing in 2% paraformaldehyde for 10 minutes at room temperature. Fixed cells are then washed and permeablized by suspension in 100% methanol at −80° C. Following overnight incubation at 4° C., cells are washed and resuspended in PBS containing 0.5% bovine serum albumin containing pSTAT6 Y641-PE conjugated antibody. After 1 hour incubation, cells are washed and the extent of STAT6 phosphorlyation in Ramos cells is measured by FACS analysis.

T1 sequence (P23458 875-1153 limits assumed): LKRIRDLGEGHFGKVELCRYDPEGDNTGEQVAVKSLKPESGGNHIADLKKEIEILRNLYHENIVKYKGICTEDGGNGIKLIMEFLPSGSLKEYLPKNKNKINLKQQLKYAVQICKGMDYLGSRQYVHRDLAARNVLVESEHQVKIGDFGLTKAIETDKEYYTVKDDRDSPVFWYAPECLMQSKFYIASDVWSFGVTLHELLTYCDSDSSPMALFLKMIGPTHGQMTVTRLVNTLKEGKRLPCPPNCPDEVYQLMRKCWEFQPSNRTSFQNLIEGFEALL

| Structure (SMILES) | IC50 [1] [nM] | IC50 [2] [nM] | IC50 [3] [nM] | IC50 [4] [nM] | inhibition at 0.2 µM [5] [%] | inhibition at 1 µM [5] [%] |
| --- | --- | --- | --- | --- | --- | --- |
| COc1ccc(Nc2cc(Nc3ccc(N4CCOCC4)cc3)c(C(N)=O)cn2)cc1 [Example 17, 6-(4-methoxyphenylamino)-4-(4-morpholinophenylamino)nicotinamide] | > 1000 | > 1000 | 100 to 1000 | > 1000 | – | – |
| NC(=O)c1cc(F)c(Nc2cccc(-n3nccn3)c2)nc1NCc1ccccc1 [Example 23, 6-(3-(2H-1,2,3-triazol-2-yl)phenylamino)-2-(benzylamino)-5-fluoronicotinamide] | > 1000 | > 1000 | > 1000 | > 1000 | – | – |
| NC(=O)c1cnc(Nc2ccc(Cl)cc2)cc1NCc1ccccc1 [Example 13, 4-(benzylamino)-6-(4-chlorophenylamino)nicotinamide] | > 1000 | > 1000 | 100 to 1000 | > 1000 | – | – |
| CC(=O)N1CCN(c2ccc(Nc3cc(NCCc4ccccc4)c(C(N)=O)cn3)cc2)CC1 [Example 29] | > 1000 | 100 to 1000 | 10 to 100 | 100 to 1000 | – | – |
| NC(=O)c1cnc(Nc2cccc(C3CCN(C4CCCC4)CC3)c2)cc1NCc1ccccc1F [Example 110, 6-(3-(1-cyclopentylpiperidin-4-yl)phenylamino)-4-(2-fluorobenzylamino)nicotinamide] | 100 to 1000 | 10 to 100 | 1 to 10 | – | 24 | 68 |
| NC(=O)c1cnc(Nc2ccccc2)cc1NCc1ccccc1 [Example 9, 4-(benzylamino)-6-(phenylamino)nicotinamide] | > 1000 | > 1000 | – | > 1000 | – | – |
| NC(=O)c1cnc(Nc2cccc(N3CCCCC3)c2)cc1N[C@H](CO)c1ccccc1 [Example 76, (S)-4-(2-hydroxy-1-phenylethylamino)-6-(3-(piperidin-1-yl)phenylamino)nicotinamide] | > 1000 | > 1000 | 10 to 100 | – | 8 | 20 |
| NC(=O)c1cnc(Nc2ccc3c(c2)NC(=O)CO3)cc1NCc1ccccc1 [Example 84, 4-(benzylamino)-6-(3-oxo-3,4-dihydro-2H-benzo[b][1,4]oxazin-6-ylamino)nicotinamide] | > 1000 | 100 to 1000 | 10 to 100 | – | 3 | 8 |
| COc1ccc(Nc2cc(NCc3cccc(F)c3)c(C(N)=O)cn2)cc1 [Example 91, 4-(3-fluorobenzylamino)-6-(4-methoxyphenylamino)nicotinamide] | > 1000 | 100 to 1000 | 10 to 100 | – | 6 | 16 |
| COc1ccc(Nc2cc(NCc3c(F)cccc3F)c(C(N)=O)cn2)cc1 [Example 82, 4-(2,6-difluorobenzylamino)-6-(4-methoxyphenylamino)nicotinamide] | 100 to 1000 | 100 to 1000 | 10 to 100 | – | 7 | 34 |

Now from value to compound, other results behind:

| IC50 [1] [nM] | IC50 [2] [nM] | IC50 [3] [nM] | IC50 [4] [nM] | Structure (SMILES) | inhibition at 0.2 µM [5] [%] | inhibition at 1 µM [5] [%] |
| --- | --- | --- | --- | --- | --- | --- |
| 100 to 1000 | 100 to 1000 | 1 to 10 | 10 to 100 | Cc1cc(Nc2cc(NCc3ccccc3)c(C(N)=O)cn2)ccc1C(=O)N(C)C1CC1 [Example 450, 4-(benzylamino)-6-(4-(cyclopropyl(methyl)carbamoyl)-3-methylphenylamino)nicotinamide] | – | – |
| 100 to 1000 | 10 to 100 | 1 to 10 | 100 to 1000 | Cc1cc(Nc2cc(NCc3ccccc3)c(C(N)=O)cn2)ccc1C(=O)N1CCOCC1 [Example 447, 4-(benzylamino)-6-(3-methyl-4-(morpholine-4-carbonyl)phenylamino)nicotinamide] | – | – |
| > 1000 | 100 to 1000 | 10 to 100 | > 1000 | CC(=O)N1CCN(c2ccc(Nc3cc(NCc4ccc(F)cc4)c(C(N)=O)cn3)cc2)CC1 [Example 252, 6-(4-(4-acetylpiperazin-1-yl)phenylamino)-4-(4-fluorobenzylamino)nicotinamide] | – | – |
| > 1000 | 100 to 1000 | 1 to 10 | 100 to 1000 | CCC(=O)N1CCC(c2ccc(Nc3cc(NCc4ccccc4)c(C(N)=O)cn3)cc2)CC1 [Example 198, 4-(benzylamino)-6-(4-(1-propionylpiperidin-4-yl)phenylamino)nicotinamide] | – | – |
| > 1000 | 100 to 1000 | 10 to 100 | > 1000 | CS(=O)(=O)N1CCN(c2ccc(Nc3cc(NC4(c5ccccc5)CC4)c(C(N)=O)cn3)cc2)CC1 [Example 364, 6-(4-(4-(methylsufonly)piperazin-1-yl)phenylamino)-4-(1-phenylcyclopropylamino)nicotinamide] | – | – |
| > 1000 | 100 to 1000 | 10 to 100 | > 1000 | CCC(=O)N1CCC(c2ccc(Nc3cc(N[C@H](C)c4ccccc4)c(C(N)=O)cn3)cc2)CC1 [Example 199, (R)-4-(1-phenylethylamino)-6-(4-(1-propionylpiperidin-4-yl)phenylamino)nicotinamide] | – | – |
| 100 to 1000 | 100 to 1000 | 1 to 10 | 100 to 1000 | CCC(=O)N1CCC(c2ccc(Nc3cc(NCc4cccs4)c(C(N)=O)cn3)cc2)CC1 [Example 197, 6-(4-(1-propionylpiperidin-4-yl)phenylamino)-4-(thiophen-2-ylmethylamino)nicotinamide] | – | – |
| > 1000 | > 1000 | 10 to 100 | – | CS(=O)(=O)N1CCC(c2ccc(Nc3cc(NCc4ccccc4F)c(C(N)=O)cn3)cc2)CC1 [Example 111, 4-(2-fluorobenzylamino)-6-(4-(1-(methylsulfonyl)piperidin-4-yl)phenylamino)nicotinamide] | 22 | 46 |
| > 1000 | 100 to 1000 | 10 to 100 | – | CN(C)C(=O)N1CCC(c2ccc(Nc3cc(NCc4ccccc4F)c(C(N)=O)cn3)cc2)CC1 [Example 114, 6-(4-(1-(dimethylcarbamoyl)piperidin-4-yl)phenylamino)-4-(2-fluorobenzylamino)nicotinamide] | 14 | 51 |
| > 1000 | > 1000 | 10 to 100 | – | CCS(=O)(=O)N1CCC(c2ccc(Nc3cc(NCc4ccccc4F)c(C(N)=O)cn3)cc2)CC1 [Example 112, 6-(4-(1-(ethylsulfonyl)piperidin-4-yl)phenylamino)-4-(2-fluorobenzylamino)nicotinamide] | 8 | 42 |
